In the NIST ThermoML archive (doi:10.1021/je1012586):

Key:
[1] = wn = mass fraction of the nth substance listed; settings: for surface tension liquid-gas: Pendant drop shape; for viscosity / mass density: 101 kPa, Liquid; for viscosity: Capillary tube (Ostwald / Ubbelohde) method
[2] = refractive index (Na D-line) (dimensionless); wn = mass fraction of the nth substance listed; settings: 101 kPa, Liquid

C1CNCCN1 [piperazine] + O
Settings	mass density, [1] [kg/m3]	refractive index, [2]	surface tension liquid-gas, [1] [mN/m]	viscosity, [1] [mPa·s]
298.15 K, w1 = 0.0174	997.75	1.33796	70.97	0.87
298.15 K, w1 = 0.0345	998.52	1.34183	69.95	0.94
298.15 K, w1 = 0.0688	1000.18	1.34759	69.83	1.08
298.15 K, w1 = 0.1035	1002.23	1.35307	69.41	1.29
303.15 K, w1 = 0.0174	996.37	1.33706	70.09	0.78
303.15 K, w1 = 0.0345	997.08	1.34024	69.18	0.85
303.15 K, w1 = 0.0688	998.69	1.34608	68.99	0.96
303.15 K, w1 = 0.1035	1000.64	1.35203	68.37	1.18
308.15 K, w1 = 0.0174	994.74	–	–	0.71
308.15 K, w1 = 0.0345	995.43	–	–	0.75
308.15 K, w1 = 0.0688	996.97	–	–	0.86
308.15 K, w1 = 0.1035	998.84	–	–	1.04
313.15 K, w1 = 0.0174	992.91	1.33604	69.11	0.68
313.15 K, w1 = 0.0345	993.59	1.33892	68.21	0.69
313.15 K, w1 = 0.0688	995.07	1.34482	68.11	0.78
313.15 K, w1 = 0.1035	996.86	1.35071	67.44	0.9
318.15 K, w1 = 0.0174	990.9	–	–	0.59
318.15 K, w1 = 0.0345	991.56	–	–	0.63
318.15 K, w1 = 0.0688	992.99	–	–	0.71
318.15 K, w1 = 0.1035	994.73	–	–	0.84
323.15 K, w1 = 0.0174	988.72	1.33476	67.93	0.54
323.15 K, w1 = 0.0345	989.35	1.33759	67.29	0.57
323.15 K, w1 = 0.0688	990.74	1.34336	67.06	0.65
323.15 K, w1 = 0.1035	992.39	1.34957	66.45	0.78
328.15 K, w1 = 0.0174	986.37	–	–	0.5
328.15 K, w1 = 0.0345	986.98	–	–	0.52
328.15 K, w1 = 0.0688	988.33	–	–	0.58
328.15 K, w1 = 0.1035	989.92	–	–	0.68
333.15 K, w1 = 0.0174	983.83	1.33348	66.99	0.46
333.15 K, w1 = 0.0345	984.46	1.33577	66.48	0.48
333.15 K, w1 = 0.0688	985.77	1.34221	66.14	0.54
333.15 K, w1 = 0.1035	987.3	1.34829	65.31	0.62
